{"source": "patent US5055479A", "about": "“Method of treating cachexia” (Sankyo Company, Limited, priority 1988, dated 1991)", "key": {"[1]": {"tested_on": "plasma lipoprotein lipase", "assay": "Enhancement of plasma lipoprotein lipase activity in mice", "format": "in vivo, mice (Balb/c)", "details": "9 mg/kg via tail vein, 21 hours later", "method": "Female mice (Balb/c, 10 weeks old, n=6, i.e. the number in each test group was 6) were injected with 9 mg/kg of the test compound (Compound No. 1-19) via the tail vein. Twenty one hours later, the activities of the plasma lipoprotein lipase were determined according to Vlassara's method. [Horm. Metabol. Res., 18, 698-703(1986)].\nActivities of the plasma lipoprotein lipase in control mice receiving physiological saline were expressed as 100 and the relative value is shown in the following Table 5."}, "[2]": {"tested_on": "tumor cells, adenocarcinoma C-12G", "assay": "Improving cachexia and increasing life-span of tumor bearing mice", "format": "in vivo, mouse (CSF1)", "text": "A mouse cachexia model was made by inoculating 6×10^5 viable tumor cells, adenocarcinoma C-12G, subcutaneously into the right axillary region of a CSF1 mouse (8-9 weeks old, female weighing 21-24 g, n=10). The viable tumor cells were counted under a microscope after staining them with 0.4% of trypan blue (Sigma Co.).\nThe growth of this kind of tumor, inoculated subcutaneously, causes a marked Weight loss (the weight losses of mice 16-17 days after tumor inoculation were (4.0-4.5 g), piloerection and depression of emotion and finally death.\nCompound No. 1-19 (hereafter called the test compound) was suspended in saline containing 0.5% CMC (carboxymethyl cellulose) at a concentration of 4 mg/ml. The suspension was administrated orally to mice on days 1-4, 7-11, 14-24 (20 times in total) after the tumor inoculation. The status of the mice, such as weight loss. Piloerection, depression of emotion and increase in life-span, was observed.\nOn the other hand, for a control group of mice, saline solution containing 0.5% of CMC was given orally.\nIn the above, the median survival times were measured in days."}, "[3]": {"assay": "Acute toxicity in rats, subcutaneous injection", "details": "rat, in vivo, sc", "text": "(§1) All of the compounds of formula (I) employed in the present invention have shown low toxicity and high safety, with limited side effects."}, "[4]": {"assay": "Acute toxicity in mice, intraperitoneal injection", "details": "mouse, in vivo, ip", "text": "as §1"}}}
{"smiles": "Cc1nc2ncnn2c2c1CCN2C(C)(C)C", "note": "[Compound 1-19, 8-t-butyl-7,8-dihydro-5-methyl-6H-pyrrolo[3,2-e][1,2,4]triazolo[1,5-a]pyrimidine]", "values": [{"measurement": "lipoprotein lipase activity relative to control", "setting": "[1]; of that of the control", "result": 120, "unit": "%"}, {"measurement": "Relative activity of the lipoprotein lipase", "setting": "[1]; saline control = 100, n = 6, mean ± standard deviation, p<0.05 vs saline", "result": "120 ± 10.6"}, {"measurement": "Median Survival time", "setting": "[2]; 40 mg/kg/day orally, days 1-4, 7-11, 14-24, control 28.0", "result": 40.5, "unit": "days"}, {"measurement": "Increase in life-span (ILS)", "setting": "[2]; 40 mg/kg/day orally, days 1-4, 7-11, 14-24, vs control", "result": 45, "unit": "%"}, {"measurement": "status of the mice (weight, hair retention and emotion)", "setting": "[2]; oral administration, 20 times in total", "result": "extensive improvements in weight, hair retention and emotion"}, {"measurement": "LD50", "setting": "[3]", "result": "≥ 100", "unit": "mg/kg"}]}
{"smiles": "Cc1ccc(CN2CCc3c(C)nc4ncnn4c32)cc1", "note": "[Compound 1-48, 7,8-dihydro-5-methyl-8-(4-methylbenzyl)-6H-pyrrolo[3,2-e][1,2,4]triazolo[1,5-a]pyrimidine]", "values": [{"measurement": "LD50", "setting": "[4]", "result": "≥ 300", "unit": "mg/kg"}]}
{"smiles": "COc1ccc(CN2CCc3c(C)nc4ncnn4c32)cc1", "note": "[Compound 1-49, 7,8-dihydro-8-(4-methoxybenzyl)-5-methyl-6H-pyrrolo[3,2-e][1,2,4]triazolo[1,5-a]pyrimidine]", "values": [{"measurement": "LD50", "setting": "[4]", "result": "≥ 300", "unit": "mg/kg"}]}
{"smiles": "Cc1nc2ncnn2c2c1CCN2Cc1ccc(Cl)cc1", "note": "[Compound 1-54, 8-(4-chlorobenzyl)-7,8-dihydro-5-methyl-6H-pyrrolo[3,2-e][1,2,4]triazolo[1,5-a]pyrimidine]", "values": [{"measurement": "LD50", "setting": "[4]", "result": "≥ 300", "unit": "mg/kg"}]}
{"smiles": "Cc1nc2ccnn2c2c1CCN2Cc1ccccc1", "note": "[Compound 2-2, 8-benzyl-7,8-dihydro-5-methyl-6H-pyrazolo[1,5-a]pyrrolo[3,2-e]pyrimidine]", "values": [{"measurement": "LD50", "setting": "[4]", "result": "≥ 300", "unit": "mg/kg"}]}
